# Literature values in US20180125835A1, “Dosage and Use of an A2A Antagonist” (H. Lundbeck A/S, priority 2014, published 2018).
# Details: in vivo; cited from earlier work
structure (smiles),measurement,value
Cc1ccc(-c2nc(N)nc3c2nnn3Cc2cccc(CO[C@H]3CCOC3)n2)o1 [Compound V-81444],half-life,5 to 7 h
